These results are taken from ChEMBL document CHEMBL3045600, “Synthesis and Fungicidal Activities of Phenoxyphenyl Alkoxyiminoacetamide Derivatives” (J Pestic Sci, 1998).

Bounds are passed on as bounds.

What all share (format): functional
Experiment [1] concerns Podosphaera fuliginea. As to the kind of experiment: Fungicidal activity against Podosphaera fuliginea assessed as cucumber powdery mildew control under greenhouse at 125 ppm foliar application 24 hr before inoculation on upper surface of leaf at 23 +/- 2 degC by preventive manner.
Experiment [2] deals with Pyricularia oryzae. Briefly: Fungicidal activity against Magnaporthe oryzae assessed as rice blast disease control at 10 ppm submerged application measured after 7 days.
Experiment [3] has as its system Botrytis cinerea. As to the kind of experiment: Fungicidal activity against Botryotinia fuckeliana assessed as cucumber gray mold disease control at 7.8 ppm foliar application 24 hr after inoculation at 22 +/- 2 degC measured after 3 days by curative manner.
Experiment [4] concerns Thanatephorus cucumeris. As to the kind of experiment: Fungicidal activity against Thanatephorus cucumeris assessed as rice sheath blight disease control at 2 ppm foliar application for 24 hr before inoculation at 26 +- 2 measured after 5 days by preventive manner.
Experiment [5] has as its system Podosphaera fuliginea. As to the kind of experiment: Fungicidal activity against Podosphaera fuliginea assessed as cucumber powdery mildew control under greenhouse at 31.3 ppm foliar application 24 hr after inoculation on upper surface of leaf at 23 +/- 2 degC by curative manner.
Experiment [6] concerns Thanatephorus cucumeris. As to the kind of experiment: Fungicidal activity against Thanatephorus cucumeris assessed as rice sheath blight disease control at 125 ppm foliar application for 24 hr before inoculation at 26 +- 2 measured after 5 days by preventive manner.
The subject of experiment [7] is Pseudoperonospora cubensis. As to the kind of experiment: Fungicidal activity against Pseudoperonospora cubensis assessed as cucumber downy mildew disease control at 7.8 ppm foliar application 24 hr before inoculation on upper surface of leaf by preventive manner.
The test system of experiment [8] is Pyricularia oryzae. As to the kind of experiment: Fungicidal activity against Magnaporthe oryzae assessed as rice blast disease control at 0.16 ppm submerged application measured after 7 days.
The subject of experiment [9] is Pseudoperonospora cubensis. As to the kind of experiment: Fungicidal activity against Pseudoperonospora cubensis assessed as cucumber downy mildew disease control at 125 ppm foliar application 24 hr before inoculation on upper surface of leaf by preventive manner.
For experiment [10], the system named is Podosphaera fuliginea. Briefly: Fungicidal activity against Podosphaera fuliginea assessed as cucumber powdery mildew control under greenhouse at 125 ppm foliar application 24 hr after inoculation on upper surface of leaf at 23 +/- 2 degC by curative manner.
For experiment [11], the system named is Thanatephorus cucumeris. Briefly: Fungicidal activity against Thanatephorus cucumeris assessed as rice sheath blight disease control at 7.8 ppm foliar application for 24 hr before inoculation at 26 +- 2 measured after 5 days by preventive manner.
Experiment [12] has as its system Podosphaera fuliginea. Briefly: Fungicidal activity against Podosphaera fuliginea assessed as cucumber powdery mildew control under greenhouse at 31.3 ppm foliar application 24 hr before inoculation on upper surface of leaf at 23 +/- 2 degC by preventive manner.
Experiment [13] concerns Podosphaera fuliginea. Briefly: Fungicidal activity against Podosphaera fuliginea assessed as cucumber powdery mildew control under greenhouse at 2 ppm foliar application 24 hr after inoculation on upper surface of leaf at 23 +/- 2 degC by curative manner.
Experiment [14] concerns Podosphaera fuliginea. As to the kind of experiment: Fungicidal activity against Podosphaera fuliginea assessed as cucumber powdery mildew control under greenhouse at 7.8 ppm foliar application 24 hr after inoculation on upper surface of leaf at 23 +/- 2 degC by curative manner.
The test system of experiment [15] is Podosphaera fuliginea. As to the kind of experiment: Fungicidal activity against Podosphaera fuliginea assessed as cucumber powdery mildew control under greenhouse at 2 ppm foliar application 24 hr before inoculation on upper surface of leaf at 23 +/- 2 degC by preventive manner.
For experiment [16], the system named is Podosphaera fuliginea. Briefly: Fungicidal activity against Podosphaera fuliginea assessed as cucumber powdery mildew control under greenhouse at 7.8 ppm foliar application 24 hr before inoculation on upper surface of leaf at 23 +/- 2 degC by preventive manner.
The subject of experiment [17] is Botrytis cinerea. Briefly: Fungicidal activity against Botryotinia fuckeliana assessed as cucumber gray mold disease control at 2 ppm foliar application 24 hr after inoculation at 22 +/- 2 degC measured after 3 days by curative manner.
In experiment [18] the test system is Pseudoperonospora cubensis. As to the kind of experiment: Fungicidal activity against Pseudoperonospora cubensis assessed as cucumber downy mildew disease control at 31.3 ppm foliar application 24 hr before inoculation on upper surface of leaf by preventive manner.
Experiment [19] has as its system Pseudoperonospora cubensis. Briefly: Fungicidal activity against Pseudoperonospora cubensis assessed as cucumber downy mildew disease control at 2 ppm foliar application 24 hr before inoculation on upper surface of leaf by preventive manner.
Experiment [20] relates to Botrytis cinerea. Briefly: Fungicidal activity against Botryotinia fuckeliana assessed as cucumber gray mold disease control at 31.3 ppm foliar application 24 hr after inoculation at 22 +/- 2 degC measured after 3 days by curative manner.
For experiment [21], the system named is Pyricularia oryzae. As to the kind of experiment: Fungicidal activity against Magnaporthe oryzae assessed as rice blast disease control at 0.63 ppm submerged application measured after 7 days.
Experiment [22] relates to Pyricularia oryzae. Briefly: Fungicidal activity against Magnaporthe oryzae assessed as rice blast disease control at 2.5 ppm submerged application measured after 7 days.
Experiment [23] deals with Botrytis cinerea. As to the kind of experiment: Fungicidal activity against Botryotinia fuckeliana assessed as cucumber gray mold disease control at 125 ppm foliar application 24 hr after inoculation at 22 +/- 2 degC measured after 3 days by curative manner.
Experiment [24] relates to Thanatephorus cucumeris. As to the kind of experiment: Fungicidal activity against Thanatephorus cucumeris assessed as rice sheath blight disease control at 31.3 ppm foliar application for 24 hr before inoculation at 26 +- 2 measured after 5 days by preventive manner.
For experiment [25], the system named is Pseudoperonospora cubensis. As to the kind of experiment: Fungicidal activity against Pseudoperonospora cubensis assessed as cucumber downy mildew disease control at 125 ppm foliar application 24 hr after inoculation on upper surface of leaf by curative manner.
Experiment [26] has as its system Pseudoperonospora cubensis. As to the kind of experiment: Fungicidal activity against Pseudoperonospora cubensis assessed as cucumber downy mildew disease control at 7.8 ppm foliar application 24 hr after inoculation on upper surface of leaf by curative manner.
In experiment [27] the test system is Pseudoperonospora cubensis. As to the kind of experiment: Fungicidal activity against Pseudoperonospora cubensis assessed as cucumber downy mildew disease control at 31.3 ppm foliar application 24 hr after inoculation on upper surface of leaf by curative manner.
Experiment [28] relates to Pseudoperonospora cubensis. Briefly: Fungicidal activity against Pseudoperonospora cubensis assessed as cucumber downy mildew disease control at 2 ppm foliar application 24 hr after inoculation on upper surface of leaf by curative manner.

Regarding `CNC(=O)/C(=N/OC)c1ccccc1Oc1ccc(C(C)C)cc1`, the Activity is reported as 70% in experiment [1]; 50% in experiment [2]; 50% in [3]; 70% in experiment [4]; 50% in experiment [5]; 70% in [6]. Further, the Activity amounted to 70% in experiment [7]; 50% in [8]; 70% in experiment [9]; 50% in [10]; 70% in experiment [11]; 70% in experiment [12]. Further, the Activity in experiment [13] is on record as 50%; in experiment [14], 50%; in [15], 70%; in experiment [16] it was 70%; in [17] it was 50%; in experiment [18], 70%. In addition, the Activity is recorded as 70% in [19]; 50% in experiment [20]; 50% in [21]; 50% in experiment [22]; 50% in [23]; 70% in experiment [24].
As for `CNC(=O)/C(=N/OC)c1ccccc1Oc1ccc([Si](C)(C)C)cc1`, the Activity is reported as 70% in [1]; less than 50% in [2]; less than 50% in experiment [3]; less than 70% in experiment [4]; 50% in [5]; less than 70% in [6]. Further, the Activity in experiment [7] is listed as less than 70%; in experiment [8], less than 50%; in experiment [9], less than 70%; in [10], 50%; in experiment [11], less than 70%; in [12], 70%. Also, the Activity was 50% in experiment [13]; 50% in experiment [14]; 70% in experiment [15]; 70% in experiment [16]; less than 50% in experiment [17]; less than 70% in [18]. The Activity was less than 70% in experiment [19]; less than 50% in [20]; less than 50% in experiment [21]; less than 50% in experiment [22]; less than 50% in experiment [23]; less than 70% in [24].
For the molecule `CNC(=O)/C(=N/OC)c1ccccc1Oc1ccccc1C`, the Activity in experiment [1] is reported as 70%; in experiment [2], 50%; in [3] it was 50%; in experiment [4] it was less than 70%; in [5] it was 50%; in [6] it was less than 70%. Also, the Activity is on record as less than 70% in [7]; 50% in experiment [8]; less than 70% in experiment [9]; 50% in experiment [10]; less than 70% in experiment [11]; 70% in experiment [12]. Also, the Activity in experiment [13] is given as 50%; in experiment [14], 50%; in [15] it was 70%; in experiment [16], 70%; in experiment [17] it was 50%; in experiment [18], less than 70%. Also, the Activity is on record as less than 70% in [19]; 50% in [20]; 50% in experiment [21]; 50% in experiment [22]; 50% in [23]; less than 70% in [24].
Regarding `CNC(=O)/C(=N/OC)c1ccccc1Oc1ccc([N+](=O)[O-])cc1`, the Activity is listed as 70% in experiment [1]; 50% in [3]; less than 70% in experiment [4]; 50% in experiment [5]; less than 50% in experiment [25]; less than 70% in [6]. The Activity in experiment [7] is less than 70%; in experiment [9], less than 70%; in experiment [10], 50%; in experiment [11] it was less than 70%; in experiment [12] it was 70%; in [13], 50%. Besides, the Activity in experiment [14] is 50%; in experiment [15], 70%; in experiment [16] it was 70%; in [17], 50%; in experiment [18], less than 70%; in experiment [26], less than 50%. The Activity in [27] is given as less than 50%; in experiment [28], less than 50%; in experiment [19] it was less than 70%; in experiment [20] it was 50%; in experiment [23], 50%; in experiment [24], less than 70%.
With `CNC(=O)/C(=N/OC)c1ccccc1Oc1ccc(C)cc1`, the Activity is reported as 70% in experiment [1]; 50% in experiment [2]; 50% in experiment [3]; 70% in [4]; 50% in [5]; 70% in experiment [6]. Moreover, the Activity in experiment [7] is less than 70%; in experiment [8], 50%; in [9] it was less than 70%; in experiment [10] it was 50%; in [11], 70%; in experiment [12] it was 70%. The Activity in [13] was 50%; in [14] it was 50%; in [15], 70%; in experiment [16], 70%; in experiment [17] it was 50%; in [18], less than 70%. The Activity is less than 70% in experiment [19]; 50% in experiment [20]; 50% in [21]; 50% in experiment [22]; 50% in experiment [23]; 70% in [24].
With `CNC(=O)/C(=N/OC)c1ccccc1Oc1cccc(OCc2ccccc2)c1`, the Activity is reported as 70% in [1]; less than 50% in [2]; 50% in [3]; 70% in [4]; 50% in [5]; 70% in [6]. Further, the Activity is recorded as 70% in experiment [7]; less than 50% in experiment [8]; 70% in [9]; 50% in experiment [10]; 70% in experiment [11]; 70% in experiment [12]. Moreover, the Activity in experiment [13] is reported as 50%; in [14], 50%; in experiment [15], 70%; in experiment [16], 70%; in experiment [17] it was 50%; in experiment [18] it was 70%. For the same molecule, the Activity is 70% in experiment [19]; 50% in [20]; less than 50% in experiment [21]; less than 50% in experiment [22]; 50% in experiment [23]; 70% in experiment [24].
